Key:
[1] = method code SF-HPLC, from DOI: 10.1016/s0021-9673(01)84554-4; details: for logD: pH 7.4

Structure (SMILES) | logD [1] | other results
CC1CC2C3CCC4=CC(=O)C=CC4(C)C3(F)C(O)CC2(C)C1(O)C(=O)NCCCCCC(=O)O (stereo unspecified) |  | logP [1]: 2.29
CC1CC2C3CCC4=CC(=O)C=CC4(C)C3(F)C(O)CC2(C)C1(O)C(=O)NC1CCCCC1 (stereo unspecified) | 3.54 | 
CCCCCNC(=O)C1(O)C(C)CC2C3CCC4=CC(=O)C=CC4(C)C3(F)C(O)CC21C (stereo unspecified) | 3.64 | 
CCNC(=O)C1(O)C(C)CC2C3CCC4=CC(=O)C=CC4(C)C3(F)C(O)CC21C (stereo unspecified) | 2.07 | 
CC(C)CCCNC(=O)C1(O)C(C)CC2C3CCC4=CC(=O)C=CC4(C)C3(F)C(O)CC21C (stereo unspecified) | 3.93 | 
CC1CC2C3CCC4=CC(=O)C=CC4(C)C3(F)C(O)CC2(C)C1(O)C(=O)NCCCCCCN (stereo unspecified) |  | logP [1]: 2.61
CCOC(CNC(=O)C1(O)C(C)CC2C3CCC4=CC(=O)C=CC4(C)C3(F)C(O)CC21C)OCC (stereo unspecified) | 2.65 | 
CC1CC2C3CCC4=CC(=O)C=CC4(C)C3(F)C(O)CC2(C)C1(O)C(=O)NCC#N (stereo unspecified) | 1.57 | 
CNC(=O)C1(O)C(C)CC2C3CCC4=CC(=O)C=CC4(C)C3(F)C(O)CC21C (stereo unspecified) | 1.54 | 
CC1CC2C3CCC4=CC(=O)C=CC4(C)C3(F)C(O)CC2(C)C1(O)C(=O)NCCCCN (stereo unspecified) |  | logP [1]: 2.3
CC1CC2C3CCC4=CC(=O)C=CC4(C)C3(F)C(O)CC2(C)C1(O)C(=O)NCc1ccccc1 (stereo unspecified) | 3.28 | 
CC(C)CCNC(=O)C1(O)C(C)CC2C3CCC4=CC(=O)C=CC4(C)C3(F)C(O)CC21C (stereo unspecified) | 3.74 | 
CC1CC2C3CCC4=CC(=O)C=CC4(C)C3(F)C(O)CC2(C)C1(O)C(=O)NCCO (stereo unspecified) | 1.51 | 
CCCCCCNC(=O)C1(O)C(C)CC2C3CCC4=CC(=O)C=CC4(C)C3(F)C(O)CC21C (stereo unspecified) | 4.54 | 
CC1CC2C3CCC4=CC(=O)C=CC4(C)C3(F)C(O)CC2(C)C1(O)C(=O)NC(C)(C)C (stereo unspecified) | 3.2 | 
CC1CC2C3CCC4=CC(=O)C=CC4(C)C3(F)C(O)CC2(C)C1(O)C(=O)NCc1ccc([N+](=O)[O-])cc1 (stereo unspecified) |  | logP: 3.37
COc1ccccc1CNC(=O)C1(O)C(C)CC2C3CCC4=CC(=O)C=CC4(C)C3(F)C(O)CC21C (stereo unspecified) |  | logP: 3.09
CCCNC(=O)C1(O)C(C)CC2C3CCC4=CC(=O)C=CC4(C)C3(F)C(O)CC21C (stereo unspecified) | 2.59 | 

Structure (SMILES) | logD [1] | other results
CCCCNC(=O)C1(O)C(C)CC2C3CCC4=CC(=O)C=CC4(C)C3(F)C(O)CC21C (stereo unspecified) | 3.1 | 
CC1CC2C3CCC4=CC(=O)C=CC4(C)C3(F)C(O)CC2(C)C1(O)C(=O)NCCCCCCCCCN (stereo unspecified) |  | logP [1]: 4.13
CC1CC2C3CCC4=CC(=O)C=CC4(C)C3(F)C(O)CC2(C)C1(O)C(=O)NC(CO)c1ccccc1 (stereo unspecified) | 2.89 | 
COc1cccc(CNC(=O)C2(O)CC3C4CCC5=CC(=O)C=CC5(C)C4(F)C(O)CC32C)c1 (stereo unspecified) |  | logP: 3.15
COC(=O)CNC(=O)C1(O)C(C)CC2C3CCC4=CC(=O)C=CC4(C)C3(F)C(O)CC21C (stereo unspecified) | 1.69 | 
CCCNCCNC(=O)C1(O)C(C)CC2C3CCC4=CC(=O)C=CC4(C)C3(F)C(O)CC21C (stereo unspecified) |  | logP [1]: 3.94
CC1CC2C3CCC4=CC(=O)C=CC4(C)C3(F)C(O)CC2(C)C1(O)C(=O)NCc1ccc(Cl)cc1 (stereo unspecified) |  | logP: 3.71
COc1ccc(CNC(=O)C2(O)C(C)CC3C4CCC5=CC(=O)C=CC5(C)C4(F)C(O)CC32C)cc1 (stereo unspecified) |  | logP: 3.04
C#CCNC(=O)C1(O)C(C)CC2C3CCC4=CC(=O)C=CC4(C)C3(F)C(O)CC21C (stereo unspecified) | 2 | 
CC1CC2C3CCC4=CC(=O)C=CC4(C)C3(F)C(O)CC2(C)C1(O)C(=O)NCCc1ccccc1 (stereo unspecified) | 3.66 | 
CC1CC2C3CCC4=CC(=O)C=CC4(C)C3(F)C(O)CC2(C)C1(O)C(=O)NCCCCCCCCN (stereo unspecified) |  | logP [1]: 3.72
CC(C)NC(=O)C1(O)C(C)CC2C3CCC4=CC(=O)C=CC4(C)C3(F)C(O)CC21C (stereo unspecified) | 2.43 | 
CC1CC2C3CCC4=CC(=O)C=CC4(C)C3(F)C(O)CC2(C)C1(O)C(=O)NCC(=O)O (stereo unspecified) |  | logP [1]: 1.2
CC1CC2C3CCC4=CC(=O)C=CC4(C)C3(F)C(O)CC2(C)C1(O)C(=O)NCCCl (stereo unspecified) | 2.73 | 
C[C@@H]1C[C@H]2[C@@H]3CCC4=CC(=O)C=C[C@]4(C)[C@@]3(F)[C@@H](O)C[C@]2(C)[C@@]1(O)C(N)=O | 1.41 | 
COC(=O)C(Cc1ccccc1)NC(=O)C1(O)C(C)CC2C3CCC4=CC(=O)C=CC4(C)C3(F)C(O)CC21C (stereo unspecified) | 3.4 | 
CC(C)CCCCNC(=O)C1(O)C(C)CC2C3CCC4=CC(=O)C=CC4(C)C3(F)C(O)CC21C (stereo unspecified) |  | logP: 3.91
CC(C)CNC(=O)C1(O)C(C)CC2C3CCC4=CC(=O)C=CC4(C)C3(F)C(O)CC21C (stereo unspecified) | 3.01 | 

— the SangsterLogP compilation
